The text below walks through data of PMC9067936, “SHIP164 is a chorein motif lipid transfer protein that controls endosome–Golgi membrane traffic” (The Journal of Cell Biology, 2022).

In this assay the target is T1, 3XFLAG-SHIP164Δ901–1099 (Homo sapiens, UniProt A0JNW5, DEL901-1099).
T1 construct: gene BLTP3B; residues 901-1099 (predicted unstructured) deleted; N-terminal 3xFLAG tag kept; expressed in Expi293F; tail-to-tail dimer in vitro
The assay is described as follows: native gel co-migration, NBD fluorescence calibrated with E-Syt2 standard curve. The format is binding. Particulars: 0.2 mM NBD-PE, 2 h on ice; labelled compound; stoichiometry estimate.

T1 sequence (A0JNW5 with tags, fused parts or gaps DEL901-1099): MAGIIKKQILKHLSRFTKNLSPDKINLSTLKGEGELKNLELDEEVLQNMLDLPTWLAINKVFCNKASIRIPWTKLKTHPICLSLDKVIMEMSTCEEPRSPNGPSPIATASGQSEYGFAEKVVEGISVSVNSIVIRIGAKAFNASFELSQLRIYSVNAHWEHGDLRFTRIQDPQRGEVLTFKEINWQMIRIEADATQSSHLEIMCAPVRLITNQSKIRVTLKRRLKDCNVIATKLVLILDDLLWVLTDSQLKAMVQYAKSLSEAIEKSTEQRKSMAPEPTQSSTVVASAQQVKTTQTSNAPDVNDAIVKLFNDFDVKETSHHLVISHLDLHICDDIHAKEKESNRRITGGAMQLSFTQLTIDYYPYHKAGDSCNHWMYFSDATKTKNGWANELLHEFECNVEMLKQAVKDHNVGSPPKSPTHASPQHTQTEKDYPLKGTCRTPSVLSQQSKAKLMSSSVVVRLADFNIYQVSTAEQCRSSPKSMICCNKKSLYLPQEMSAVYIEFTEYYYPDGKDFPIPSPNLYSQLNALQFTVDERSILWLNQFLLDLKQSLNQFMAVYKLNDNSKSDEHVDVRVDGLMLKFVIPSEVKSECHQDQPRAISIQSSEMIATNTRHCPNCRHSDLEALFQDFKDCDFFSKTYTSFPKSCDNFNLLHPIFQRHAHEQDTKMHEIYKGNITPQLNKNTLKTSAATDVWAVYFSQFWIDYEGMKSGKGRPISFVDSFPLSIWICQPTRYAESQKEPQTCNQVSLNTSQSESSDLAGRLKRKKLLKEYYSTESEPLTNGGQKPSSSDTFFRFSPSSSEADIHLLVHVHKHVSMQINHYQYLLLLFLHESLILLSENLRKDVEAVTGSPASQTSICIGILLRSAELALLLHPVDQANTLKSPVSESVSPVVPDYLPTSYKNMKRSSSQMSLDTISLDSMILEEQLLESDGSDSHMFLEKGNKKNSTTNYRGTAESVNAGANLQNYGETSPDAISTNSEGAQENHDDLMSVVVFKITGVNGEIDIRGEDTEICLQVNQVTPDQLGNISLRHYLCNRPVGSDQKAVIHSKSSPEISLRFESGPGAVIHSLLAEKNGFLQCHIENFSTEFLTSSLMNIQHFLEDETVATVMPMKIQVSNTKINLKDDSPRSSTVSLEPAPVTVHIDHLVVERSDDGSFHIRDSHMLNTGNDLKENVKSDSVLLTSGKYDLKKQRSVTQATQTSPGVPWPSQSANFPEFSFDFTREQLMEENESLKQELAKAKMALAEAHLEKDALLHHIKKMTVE

Take `CCCCCCCC/C=C\CCCCCCCC(=O)OC[C@H](COP(=O)(O)OCCNc1ccc([N+](=O)[O-])c2nonc12)OC(=O)CCCCCCC/C=C\CCCCCCCC` [NBD-PE]: the “lipids per SHIP164 molecule” value was ~ 8 lipids per protein molecule.
